Measurements: the NIST ThermoML archive (doi:10.1021/je049556i)
± gives the expanded uncertainty stated by the source.

Experiments:
[1] = 101 kPa, Liquid
[2] = xn = mol fraction of the nth substance listed; settings: 101 kPa, Liquid

CC1OC(C)OC(C)O1 (configuration not stated) [2,4,6-trimethyl-1,3,5-trioxane]
[1]
Settings	mass density [kg/m3]	viscosity [mPa·s]
298.15 K	988.35 ± 1.8	1.107 ± 0.037
303.15 K	982.64 ± 1.8	1.001 ± 0.034
308.15 K	976.44 ± 1.9	0.907 ± 0.031

CC1OC(C)OC(C)O1 (configuration not stated) [2,4,6-trimethyl-1,3,5-trioxane] + CCCCO
[2]
Settings	mass density, 298.15 K [kg/m3]	mass density, 303.15 K [kg/m3]	mass density, 308.15 K [kg/m3]	viscosity, 298.15 K [mPa·s]	viscosity, 303.15 K [mPa·s]	viscosity, 308.15 K [mPa·s]
x1 = 0.0289	814.71 ± 2.4	810.8 ± 2.4	806.91 ± 2.4	2.46 ± 0.095	2.164 ± 0.084	1.917 ± 0.075
x1 = 0.0582	823.46 ± 2.4	819.5 ± 2.4	815.51 ± 2.4	2.311 ± 0.089	2.037 ± 0.078	1.809 ± 0.07
x1 = 0.0804	829.94 ± 2.4	825.93 ± 2.4	821.87 ± 2.4	2.204 ± 0.084	1.948 ± 0.075	1.732 ± 0.067
x1 = 0.0999	835.53 ± 2.4	831.47 ± 2.4	827.35 ± 2.4	2.116 ± 0.08	1.873 ± 0.072	1.668 ± 0.064
x1 = 0.194	861.02 ± 2.3	856.78 ± 2.3	852.47 ± 2.4	1.756 ± 0.066	1.568 ± 0.059	1.406 ± 0.053
x1 = 0.3007	886.93 ± 2.2	882.65 ± 2.3	878.35 ± 2.4	1.471 ± 0.055	1.324 ± 0.049	1.197 ± 0.045
x1 = 0.4056	909.58 ± 2.2	905 ± 2.2	900.34 ± 2.3	1.302 ± 0.048	1.177 ± 0.043	1.07 ± 0.04
x1 = 0.5091	928.91 ± 2.1	924.2 ± 2.2	919.2 ± 2.2	1.219 ± 0.044	1.103 ± 0.04	1.006 ± 0.037
x1 = 0.6218	946.67 ± 2	941.75 ± 2.1	936.55 ± 2.1	1.193 ± 0.042	1.077 ± 0.038	0.983 ± 0.035
x1 = 0.6932	956.21 ± 2	951.23 ± 2	945.98 ± 2.1	1.193 ± 0.041	1.075 ± 0.038	0.98 ± 0.035
x1 = 0.8331	972.07 ± 1.9	966.65 ± 1.9	960.87 ± 2	1.184 ± 0.04	1.064 ± 0.036	0.969 ± 0.034
x1 = 0.9165	980.1 ± 1.9	974.5 ± 1.9	968.65 ± 1.9	1.143 ± 0.038	1.03 ± 0.035	0.938 ± 0.032
x1 = 1	988.35 ± 1.8	982.64 ± 1.8	976.44 ± 1.9	1.107 ± 0.037	1.001 ± 0.034	0.907 ± 0.031

CC1OC(C)OC(C)O1 (configuration not stated) [2,4,6-trimethyl-1,3,5-trioxane] + CCCO
[2]
Settings	mass density, 298.15 K [kg/m3]	mass density, 303.15 K [kg/m3]	mass density, 308.15 K [kg/m3]	viscosity, 298.15 K [mPa·s]	viscosity, 303.15 K [mPa·s]	viscosity, 308.15 K [mPa·s]
x1 = 0.0286	809.7 ± 2.4	804.77 ± 2.4	800.59 ± 2.4	1.861 ± 0.072	1.653 ± 0.065	1.474 ± 0.058
x1 = 0.0484	816.43 ± 2.4	811.5 ± 2.4	807.28 ± 2.4	1.807 ± 0.07	1.606 ± 0.063	1.433 ± 0.056
x1 = 0.0743	824.91 ± 2.4	820 ± 2.4	815.72 ± 2.4	1.74 ± 0.067	1.548 ± 0.06	1.383 ± 0.054
x1 = 0.101	833.29 ± 2.4	828.4 ± 2.4	824.06 ± 2.4	1.676 ± 0.064	1.492 ± 0.058	1.334 ± 0.052
x1 = 0.197	860.73 ± 2.3	855.87 ± 2.4	851.32 ± 2.4	1.481 ± 0.056	1.322 ± 0.05	1.187 ± 0.046
x1 = 0.3124	888.86 ± 2.2	883.99 ± 2.3	879.22 ± 2.4	1.312 ± 0.049	1.175 ± 0.044	1.061 ± 0.04
x1 = 0.4052	908.29 ± 2.2	903.38 ± 2.2	898.44 ± 2.3	1.219 ± 0.045	1.096 ± 0.041	0.994 ± 0.037
x1 = 0.527	930.22 ± 2.1	925.2 ± 2.2	920.07 ± 2.2	1.145 ± 0.041	1.034 ± 0.037	0.942 ± 0.034
x1 = 0.5689	936.94 ± 2.1	931.88 ± 2.1	926.69 ± 2.2	1.129 ± 0.04	1.021 ± 0.037	0.931 ± 0.034
x1 = 0.7214	958.42 ± 1.9	953.17 ± 2	947.75 ± 2.1	1.105 ± 0.038	1.001 ± 0.035	0.915 ± 0.032
x1 = 0.8026	968.19 ± 1.9	962.8 ± 2	957.27 ± 2	1.105 ± 0.038	1.002 ± 0.035	0.915 ± 0.032
x1 = 0.8948	978.07 ± 1.8	972.51 ± 1.9	966.87 ± 1.9	1.109 ± 0.037	1.005 ± 0.034	0.915 ± 0.032
x1 = 1	988.35 ± 1.8	982.64 ± 1.8	976.44 ± 1.9	1.107 ± 0.037	1.001 ± 0.034	0.907 ± 0.031
